Experimental data taken from ChEMBL document CHEMBL4725256, “A critical update on the strategies towards modulators targeting androgen receptors” (Bioorg Med Chem, 2020).

Biological target: T1, Androgen receptor (Rattus norvegicus, UniProt P15207)
T1 sequence (P15207 whole entry): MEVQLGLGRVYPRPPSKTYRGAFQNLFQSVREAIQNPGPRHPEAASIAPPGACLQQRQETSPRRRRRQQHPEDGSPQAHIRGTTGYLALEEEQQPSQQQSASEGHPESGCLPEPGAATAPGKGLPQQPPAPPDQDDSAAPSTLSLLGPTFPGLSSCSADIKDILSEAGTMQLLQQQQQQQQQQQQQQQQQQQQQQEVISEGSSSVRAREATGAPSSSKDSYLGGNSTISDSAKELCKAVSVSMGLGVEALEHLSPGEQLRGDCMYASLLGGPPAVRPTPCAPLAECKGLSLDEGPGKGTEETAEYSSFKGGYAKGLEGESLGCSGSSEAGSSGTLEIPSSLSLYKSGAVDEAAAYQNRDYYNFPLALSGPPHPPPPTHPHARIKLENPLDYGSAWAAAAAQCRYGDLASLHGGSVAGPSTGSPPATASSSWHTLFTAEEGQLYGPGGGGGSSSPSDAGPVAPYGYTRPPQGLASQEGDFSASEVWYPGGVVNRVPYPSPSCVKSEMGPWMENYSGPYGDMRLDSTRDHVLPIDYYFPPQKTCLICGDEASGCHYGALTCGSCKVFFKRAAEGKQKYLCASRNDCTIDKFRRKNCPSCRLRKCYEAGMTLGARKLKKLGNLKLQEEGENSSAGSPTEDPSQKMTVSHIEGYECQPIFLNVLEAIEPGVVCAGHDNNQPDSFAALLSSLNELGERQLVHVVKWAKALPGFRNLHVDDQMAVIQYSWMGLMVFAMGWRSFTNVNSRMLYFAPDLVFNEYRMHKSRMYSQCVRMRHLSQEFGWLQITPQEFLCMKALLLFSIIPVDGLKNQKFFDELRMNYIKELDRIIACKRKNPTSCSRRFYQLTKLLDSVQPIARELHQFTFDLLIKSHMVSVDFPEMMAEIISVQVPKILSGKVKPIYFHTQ
Assay: Antagonist activity at recombinant GST/His-tagged rat androgen receptor amino-terminal domain by fluorescence polarization assay

IC50: 6 µM
Structure (SMILES): CC(C)(c1ccc(OCC(O)CO)cc1)c1ccc(OCC(O)CCl)cc1 (stereo unspecified)
